Source: ChEMBL document CHEMBL3875185, “Structure-anticonvulsant activity studies in the group of (E)-N-cinnamoyl aminoalkanols derivatives monosubstituted in phenyl ring with 4-Cl, 4-CH3 or 2-CH3” (Bioorg Med Chem, 2017)
Calls of active or inactive are those of the source. The calls are words filed in the database; no cut-off is given here.

Tests used:
[1] = biological target: Substance-P receptor (Homo sapiens) (UniProt P25103); assay: Displacement of [125I]BH-SP from NK1 receptor in human U373MG cells at 100 uM measured after 30 mins by scintillation counting method relative to control; assay type: cell-based; conditions: U-373MG ATCC
Substance-P receptor (Homo sapiens), sequence (P25103 whole entry): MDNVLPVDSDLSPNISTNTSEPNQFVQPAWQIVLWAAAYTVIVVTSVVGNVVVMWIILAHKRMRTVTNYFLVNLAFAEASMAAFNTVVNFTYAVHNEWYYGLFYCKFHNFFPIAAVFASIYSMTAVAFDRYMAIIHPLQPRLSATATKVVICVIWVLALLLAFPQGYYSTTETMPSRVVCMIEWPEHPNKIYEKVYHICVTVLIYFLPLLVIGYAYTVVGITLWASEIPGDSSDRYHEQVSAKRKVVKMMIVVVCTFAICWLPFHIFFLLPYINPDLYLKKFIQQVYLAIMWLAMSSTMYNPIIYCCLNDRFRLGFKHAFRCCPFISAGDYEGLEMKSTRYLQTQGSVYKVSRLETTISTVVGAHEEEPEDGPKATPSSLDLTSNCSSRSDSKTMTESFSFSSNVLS

[2] = biological target: D(3) dopamine receptor (Homo sapiens) (UniProt P35462); assay: Displacement of [3H]methyl-spiperone from human recombinant dopamine D3 receptor expressed in CHO cells at 100 uM measured after 60 mins by scintillation counting method relative to control; assay type: cell-based
D(3) dopamine receptor (Homo sapiens), sequence (P35462 whole entry): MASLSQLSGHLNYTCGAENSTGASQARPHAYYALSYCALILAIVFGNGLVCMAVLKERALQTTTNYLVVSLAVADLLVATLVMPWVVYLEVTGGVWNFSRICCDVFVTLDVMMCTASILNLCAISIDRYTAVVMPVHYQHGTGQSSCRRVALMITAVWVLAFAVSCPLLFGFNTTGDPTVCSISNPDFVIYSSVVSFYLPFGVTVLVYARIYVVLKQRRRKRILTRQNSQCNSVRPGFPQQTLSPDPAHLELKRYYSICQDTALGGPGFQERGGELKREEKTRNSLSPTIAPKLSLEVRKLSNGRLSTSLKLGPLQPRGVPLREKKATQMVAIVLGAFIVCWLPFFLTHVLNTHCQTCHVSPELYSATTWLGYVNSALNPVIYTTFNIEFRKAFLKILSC

Rattus norvegicus [3] = species: Rattus norvegicus; assay: Displacement of [35S]TBPS from rat cerebral cortex GABA-gated chloride channel at 100 uM measured after 60 mins by scintillation counting method relative to control
[4] = biological target: T1, Endothelin-1 receptor (Homo sapiens) (UniProt P25101); assay: Displacement of [125I]endothelin-1 from human recombinant ETA receptor expressed in CHO cells at 100 uM measured after 120 mins by scintillation counting method relative to control; assay type: cell-based
T1 sequence (whole entry): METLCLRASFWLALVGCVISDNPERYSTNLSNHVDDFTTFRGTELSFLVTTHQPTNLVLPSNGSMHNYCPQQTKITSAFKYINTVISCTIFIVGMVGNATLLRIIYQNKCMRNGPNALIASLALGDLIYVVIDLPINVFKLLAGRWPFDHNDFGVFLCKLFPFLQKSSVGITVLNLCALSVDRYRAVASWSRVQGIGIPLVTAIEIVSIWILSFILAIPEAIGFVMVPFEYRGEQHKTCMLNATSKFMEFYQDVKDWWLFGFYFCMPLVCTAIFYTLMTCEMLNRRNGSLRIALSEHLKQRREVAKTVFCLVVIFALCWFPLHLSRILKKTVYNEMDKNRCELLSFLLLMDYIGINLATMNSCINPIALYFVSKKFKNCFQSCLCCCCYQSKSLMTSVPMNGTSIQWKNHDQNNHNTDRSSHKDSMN

[5] = Protection index, ratio of TD50 for neurotoxicity in ip dosed Sprague-Dawley rat model to ED50 for ip dosed pentylenetetrazole induced seizure Sprague-Dawley rat model; assay type: toxicity, organism-based; conditions: in vivo, read-out: Ratio TD50/ED50
[6] = biological target: T2, 5-hydroxytryptamine receptor 1A (Homo sapiens) (UniProt P08908); assay: Displacement of [3H]8-OH-DPAT from human recombinant 5HT1A receptor expressed in HEK293 cells at 100 uM measured after 60 mins by scintillation counting method relative to control; assay type: cell-based
T2 sequence (whole entry): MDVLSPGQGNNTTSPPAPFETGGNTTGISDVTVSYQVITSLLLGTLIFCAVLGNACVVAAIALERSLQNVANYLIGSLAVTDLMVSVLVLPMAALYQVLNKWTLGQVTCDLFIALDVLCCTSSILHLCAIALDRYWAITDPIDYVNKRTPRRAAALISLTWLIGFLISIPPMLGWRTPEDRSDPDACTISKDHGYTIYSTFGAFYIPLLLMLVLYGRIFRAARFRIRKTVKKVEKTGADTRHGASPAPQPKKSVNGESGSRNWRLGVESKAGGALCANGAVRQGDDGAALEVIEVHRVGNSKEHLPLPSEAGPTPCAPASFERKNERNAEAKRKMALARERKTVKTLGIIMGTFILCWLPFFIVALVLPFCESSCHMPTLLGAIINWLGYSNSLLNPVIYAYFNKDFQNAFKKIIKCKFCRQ

Mus musculus [7] = assay: Neurotoxicity in mouse assessed as induction of motor impairment at 30 mg/kg, ip measured at 0.5 hrs post dose by rotarod method; assay type: toxicity, organism-based; conditions: in vivo
[8] = biological target: Sodium-dependent noradrenaline transporter (Homo sapiens) (UniProt P23975); assay: Displacement of [3H]nisoxetine from human recombinant norepinephrine transporter expressed in CHO cells at 100 uM measured after 120 mins by scintillation counting method relative to control; assay type: cell-based
Sodium-dependent noradrenaline transporter (Homo sapiens), sequence (P23975 whole entry): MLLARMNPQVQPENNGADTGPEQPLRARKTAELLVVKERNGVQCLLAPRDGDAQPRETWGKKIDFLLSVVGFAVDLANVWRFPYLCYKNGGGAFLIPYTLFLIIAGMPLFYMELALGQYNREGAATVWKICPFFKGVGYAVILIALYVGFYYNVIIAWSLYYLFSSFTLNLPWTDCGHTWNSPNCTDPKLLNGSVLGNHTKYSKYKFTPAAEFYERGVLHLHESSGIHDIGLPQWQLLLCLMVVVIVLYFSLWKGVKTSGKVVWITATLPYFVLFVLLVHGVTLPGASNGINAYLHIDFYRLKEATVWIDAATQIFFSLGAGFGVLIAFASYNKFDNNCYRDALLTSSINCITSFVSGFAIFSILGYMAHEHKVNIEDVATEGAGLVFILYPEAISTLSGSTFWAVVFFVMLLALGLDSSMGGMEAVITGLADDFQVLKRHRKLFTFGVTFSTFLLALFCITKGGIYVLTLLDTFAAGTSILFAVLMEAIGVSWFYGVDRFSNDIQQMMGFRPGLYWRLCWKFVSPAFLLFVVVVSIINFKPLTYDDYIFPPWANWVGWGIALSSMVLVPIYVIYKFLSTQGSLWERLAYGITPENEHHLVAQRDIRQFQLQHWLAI

Rattus norvegicus [9] = assay: Neurotoxicity in Sprague-Dawley rat assessed as behavioral change at 30 mg/kg, po measured at 0.5 hrs post dose; assay type: toxicity, organism-based; conditions: in vivo
Rattus norvegicus [10] = species: Rattus norvegicus; assay: Displacement of [3H]batrachotoxinin from rat cerebral cortex sodium channel site 2 at 100 uM measured after 60 mins by scintillation counting method relative to control
[11] = biological target: Sodium-dependent dopamine transporter (Homo sapiens) (UniProt Q01959); assay: Displacement of [3H]BTCP from human recombinant dopamine transporter expressed in CHO cells at 100 uM measured after 120 mins by scintillation counting method relative to control; assay type: cell-based
Sodium-dependent dopamine transporter (Homo sapiens), sequence (Q01959 whole entry): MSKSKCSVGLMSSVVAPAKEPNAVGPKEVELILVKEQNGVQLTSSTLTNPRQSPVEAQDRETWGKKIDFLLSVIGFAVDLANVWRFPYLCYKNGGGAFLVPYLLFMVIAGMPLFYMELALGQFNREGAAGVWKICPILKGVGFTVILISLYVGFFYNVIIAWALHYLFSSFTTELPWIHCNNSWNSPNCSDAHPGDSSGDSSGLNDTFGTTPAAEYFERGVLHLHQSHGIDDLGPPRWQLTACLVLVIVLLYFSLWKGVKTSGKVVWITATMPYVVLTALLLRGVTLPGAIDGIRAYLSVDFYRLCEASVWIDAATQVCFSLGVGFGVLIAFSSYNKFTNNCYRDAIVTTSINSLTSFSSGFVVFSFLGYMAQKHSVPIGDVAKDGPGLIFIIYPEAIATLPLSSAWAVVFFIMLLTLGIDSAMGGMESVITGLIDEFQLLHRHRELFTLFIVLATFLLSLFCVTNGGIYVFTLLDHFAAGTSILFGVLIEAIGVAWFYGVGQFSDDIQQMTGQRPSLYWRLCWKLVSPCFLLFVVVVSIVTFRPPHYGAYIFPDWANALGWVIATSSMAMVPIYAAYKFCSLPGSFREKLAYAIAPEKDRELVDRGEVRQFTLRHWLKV

[12] = Protection index, ratio of TD50 for neurotoxicity in po dosed Sprague-Dawley rat model to ED50 for po dosed maximal electroshock induced seizure Sprague-Dawley rat model; assay type: toxicity, organism-based; conditions: in vivo, read-out: Ratio TD50/ED50
[13] = biological target: Muscarinic acetylcholine receptor M3 (Homo sapiens) (UniProt P20309); assay: Displacement of [3H]4-DAMP from human recombinant M3 receptor expressed in CHO cells at 100 uM measured after 60 mins by scintillation counting method relative to control; assay type: cell-based
Muscarinic acetylcholine receptor M3 (Homo sapiens), sequence (P20309 whole entry, looked up): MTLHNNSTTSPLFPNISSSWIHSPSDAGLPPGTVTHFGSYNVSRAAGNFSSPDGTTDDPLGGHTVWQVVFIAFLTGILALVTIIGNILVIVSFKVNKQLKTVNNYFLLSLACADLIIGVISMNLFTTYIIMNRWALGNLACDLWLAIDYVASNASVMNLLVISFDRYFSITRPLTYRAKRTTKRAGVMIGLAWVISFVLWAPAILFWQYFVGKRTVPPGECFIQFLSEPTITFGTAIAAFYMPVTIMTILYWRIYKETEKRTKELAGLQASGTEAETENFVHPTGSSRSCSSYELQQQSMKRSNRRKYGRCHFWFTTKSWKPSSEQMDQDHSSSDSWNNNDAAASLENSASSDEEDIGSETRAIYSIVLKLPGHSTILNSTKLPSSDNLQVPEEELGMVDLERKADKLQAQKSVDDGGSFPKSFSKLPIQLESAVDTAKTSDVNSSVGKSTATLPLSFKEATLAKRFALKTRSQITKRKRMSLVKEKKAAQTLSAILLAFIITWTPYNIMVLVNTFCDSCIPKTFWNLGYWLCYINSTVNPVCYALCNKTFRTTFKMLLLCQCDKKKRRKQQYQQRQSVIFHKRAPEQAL

Rattus norvegicus [14] = assay: Anticonvulsant activity in ip dosed maximal electroshock induced seizure Sprague-Dawley rat model assessed as suppression in hindlimb tonic extension by measuring time to peak effect; assay type: functional
[15] = biological target: Adrenergic receptor alpha-2 (Rattus norvegicus) (UniProt P22086+P19328+P22909); assay: Displacement of [3H]RX 821002 from rat cerebral cortex alpha-2 adrenergic receptor at 100 uM measured after 60 mins by scintillation counting method relative to control
Rattus norvegicus [16] = assay: Neurotoxicity in Sprague-Dawley rat assessed as behavioral change at 30 mg/kg, po measured at 2 hrs post dose; assay type: toxicity, organism-based; conditions: in vivo
[17] = biological target: Mu-type opioid receptor (Homo sapiens) (UniProt P35372); assay: Displacement of [3H]DAMGO from human recombinant mu-opioid receptor expressed in HEK293 cells at 100 uM measured after 120 mins by scintillation counting method relative to control; assay type: cell-based
Mu-type opioid receptor (Homo sapiens), sequence (P35372 whole entry): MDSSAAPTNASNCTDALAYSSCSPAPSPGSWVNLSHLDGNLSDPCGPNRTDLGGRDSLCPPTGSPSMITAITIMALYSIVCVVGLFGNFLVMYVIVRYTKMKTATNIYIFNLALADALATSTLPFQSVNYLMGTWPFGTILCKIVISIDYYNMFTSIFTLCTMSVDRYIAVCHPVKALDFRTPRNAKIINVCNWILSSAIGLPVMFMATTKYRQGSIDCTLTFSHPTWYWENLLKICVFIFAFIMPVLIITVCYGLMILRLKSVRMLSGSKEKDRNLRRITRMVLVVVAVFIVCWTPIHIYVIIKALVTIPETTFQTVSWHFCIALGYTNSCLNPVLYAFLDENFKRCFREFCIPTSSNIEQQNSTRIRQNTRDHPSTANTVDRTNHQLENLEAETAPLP

Rattus norvegicus [18] = species: Rattus norvegicus; assay: Displacement of [125I]apamin from rat cerebral cortex SKCa channel at 100 uM measured after 60 mins by scintillation counting method relative to control
[19] = Protection index, ratio of TD50 for neurotoxicity in ip dosed Sprague-Dawley rat model to ED50 for ip dosed maximal electroshock induced seizure Sprague-Dawley rat model; assay type: toxicity, organism-based; conditions: in vivo, read-out: Ratio TD50/ED50
[20] = biological target: 5-hydroxytryptamine receptor 6 (Homo sapiens) (UniProt P50406); assay: Displacement of [3H]LSD from human recombinant 5HT6 receptor expressed in CHO cells at 100 uM measured after 120 mins by scintillation counting method relative to control; assay type: cell-based
5-hydroxytryptamine receptor 6 (Homo sapiens), sequence (P50406 whole entry): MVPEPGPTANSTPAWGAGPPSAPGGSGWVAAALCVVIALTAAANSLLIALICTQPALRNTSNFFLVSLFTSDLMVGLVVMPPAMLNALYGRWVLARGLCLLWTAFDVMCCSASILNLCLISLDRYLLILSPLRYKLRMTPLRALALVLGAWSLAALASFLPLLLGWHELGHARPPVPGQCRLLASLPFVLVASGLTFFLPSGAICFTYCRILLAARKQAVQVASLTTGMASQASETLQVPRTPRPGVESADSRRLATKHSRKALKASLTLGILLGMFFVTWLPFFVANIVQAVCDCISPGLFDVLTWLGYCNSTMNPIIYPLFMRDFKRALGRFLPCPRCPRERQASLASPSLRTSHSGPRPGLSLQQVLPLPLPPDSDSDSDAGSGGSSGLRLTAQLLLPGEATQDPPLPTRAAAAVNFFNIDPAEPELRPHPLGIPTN

Mus musculus [21] = assay: Anticonvulsant activity in pentylenetetrazole induced seizure mouse model assessed as no observable episode of clonic convulsion of at least 5 secs at 300 mg/kg, ip measured at 0.5 hrs post dose; assay type: functional, organism-based
[22] = Neurotoxicity in po dosed Sprague-Dawley rat assessed as behavioral change; assay type: toxicity, organism-based; conditions: in vivo
Mus musculus [23] = assay: Anticonvulsant activity in ip dosed 6-Hz induced seizure mouse model assessed as restoration of normal activity within 10 secs from stimulation at 32 mA; assay type: functional
[24] = biological target: Melanocortin receptor 4 (Homo sapiens) (UniProt P32245); assay: Displacement of [125I]NDP-a-MSH from human recombinant MC4 receptor expressed in CHO cells at 100 uM measured after 120 mins by scintillation counting method relative to control; assay type: cell-based
Melanocortin receptor 4 (Homo sapiens), sequence (P32245 whole entry): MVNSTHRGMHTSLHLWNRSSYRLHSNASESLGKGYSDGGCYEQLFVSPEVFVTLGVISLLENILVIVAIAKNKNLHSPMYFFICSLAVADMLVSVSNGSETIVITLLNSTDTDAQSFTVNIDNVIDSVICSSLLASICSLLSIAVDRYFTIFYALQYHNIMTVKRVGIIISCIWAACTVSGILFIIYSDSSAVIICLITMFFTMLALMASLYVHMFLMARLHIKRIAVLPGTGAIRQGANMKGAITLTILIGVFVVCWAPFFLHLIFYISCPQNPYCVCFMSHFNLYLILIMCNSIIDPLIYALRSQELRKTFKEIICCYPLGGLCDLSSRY

SMILES: CCC(CO)NC(=O)/C=C/c1ccc(Cl)cc1 (configuration not stated)
- inhibition [1]: 3%
- inhibition [2]: 18.2%
- inhibition (Rattus norvegicus [3]): 37.2%
- inhibition [4]: 0.3%
- selectivity ratio [5]: 1.23
- inhibition [6]: 28.2%
- Activity (Mus musculus [7]): Non-Toxic
- inhibition [8]: 61.7%
- Activity (Rattus norvegicus [9]): Non-Toxic
- inhibition (Rattus norvegicus [10]): 28.4%
- inhibition [11]: 29.5%
- selectivity ratio [12]: 5.92
- inhibition [13]: 1.5%
- Time (Rattus norvegicus [14]): 0.5 h
- inhibition [15]: 34.8%
- Activity (Rattus norvegicus [16]): Non-Toxic
- inhibition [17]: 23.3%
- inhibition (Rattus norvegicus [18]): 2.3%
- selectivity ratio [19]: 3.74
- inhibition [20]: 3.7%
- Activity (Mus musculus [21]): Active
- TD50 [22]: 277 mg/kg
- ED50 (Mus musculus [23]): 57.6 mg/kg
- inhibition [24]: -3.1%

SMILES: Cc1ccccc1/C=C/C(=O)N[C@@H](C)CO
- inhibition [1]: -5.7%
- inhibition [2]: 7.2%
- inhibition (Rattus norvegicus [3]): 17.7%
- inhibition [4]: -1%
- selectivity ratio [5]: 4.18
- inhibition [6]: 51.2%
- Activity (Mus musculus [7]): Non-Toxic
- inhibition [8]: 30.4%
- Activity (Rattus norvegicus [9]): Non-Toxic
- inhibition (Rattus norvegicus [10]): -2.3%
- inhibition [11]: 14.8%
- selectivity ratio [12]: > 19.4
- inhibition [13]: -2%
- Time (Rattus norvegicus [14]): 0.25 h
- inhibition [15]: 10.8%
- Activity (Rattus norvegicus [16]): Non-Toxic
- inhibition [17]: 0.4%
- inhibition (Rattus norvegicus [18]): -5.8%
- selectivity ratio [19]: 6.3
- inhibition [20]: 7%
- Activity (Mus musculus [21]): Active
- TD50 [22]: > 500 mg/kg
- ED50 (Mus musculus [23]): 52.6 mg/kg
- inhibition [24]: 7.9%

SMILES: CC(O)CNC(=O)/C=C/c1ccc(Cl)cc1 (configuration not stated)
- inhibition [1]: 3.1%
- inhibition [2]: 17.4%
- inhibition (Rattus norvegicus [3]): 22.6%
- inhibition [4]: 9.3%
- selectivity ratio [5]: 1.25
- inhibition [6]: 76.6%
- Activity (Mus musculus [7]): Non-Toxic
- inhibition [8]: 48.1%
- Activity (Rattus norvegicus [9]): Non-Toxic
- inhibition (Rattus norvegicus [10]): 10.2%
- inhibition [11]: 16%
- selectivity ratio [12]: 6.47
- inhibition [13]: 2.9%
- Time (Rattus norvegicus [14]): 0.5 h
- inhibition [15]: 25.1%
- Activity (Rattus norvegicus [16]): Non-Toxic
- inhibition [17]: 11.3%
- inhibition (Rattus norvegicus [18]): -2.5%
- selectivity ratio [19]: 1.66
- inhibition [20]: 4.6%
- Activity (Mus musculus [21]): Active
- TD50 [22]: > 500 mg/kg
- ED50 (Mus musculus [23]): 42.3 mg/kg
- inhibition [24]: 0.9%
